# According to patent US12350283B2, “Methods and compositions for treating motor neuron diseases” (UNIVERSITAT DE VALENCIA-ESTUDI GENERAL, priority 2019, dated 2025):
# Columns and labels:
# [1] = system: SOD1-G93A mice; assay: Neurological score (scale of Weydt et al.) in SOD1 mice; type: in vivo, mouse; conditions: scale 0-5
# Experimental: (§1) EH301 [Nicotinamide riboside (NR) and pterostilbene (PT)] was administered orally: 185 mg of nicotinamide riboside and 30 mg of pterostilbene/Kg×day (Estrela J M, De La Rubia J E, Dellinger R W. Treating and preventing motor neuron disease using nicotinamide riboside. PCT/US 18/32932, 2018).
# (§2) Dexamethasone (DXM) was administered i.p. following sequential 4 weeks-cycle along the experimental time: 1 mg/Kg×day (1st week), 0.5 mg/Kg×day (2nd week), 0.25 mg/Kg×day (3rd week), 0.0 mg/Kg×day ([…]). The dose of 1 mg/Kg was selected based on Kurkowska-Jastrzebska I, Litwin T, Joniec I, Ciesielska A, Przybyłkowski A, Członkowski A, Członkowska A. Dexamethasone protects against dopaminergic neurons damage in a mouse model of Parkinson's disease. Int Immunopharmacol. 2004 October; 4(10-11):1307-18. The cyclic dose regime was designed to optimize the therapeutic benefit causing minimal possible side effects.
# (§3) Ibudilast (IB) was administered orally: 12 mg/Kg×day (Wang H, Mei Zl, Zhong K L, Hu M, Long Y, Miao M X, Li N, Yan T H, Hong H. Pretreatment with antiasthmatic drug ibudilast ameliorates Aβ 1-42-induced memory impairment and neurotoxicity in mice. Pharmacol Biochem Behav. 2014 September; 124:373-9).
# (§4) Daily doses of NR, DXM and IB were administered together dissolved in 75 uL of physiological saline. PT was present in the chow of laboratory animals. The PT dose was adjusted based on the animal weight and the amount of food ingested per day.
# This neurological score is based on the scale of Weydt et al. (Weydt, P., Hong, S. Y., Kliot, M., Moller, T., 2003. Assessing disease onset and progression in the SOD1 mouse model of ALS. NeuroReport 14, 1051-1054). […] When the animals reach a score of “4”, the access to food and water will be facilitated by placing food pellets on the cage floor to all transgenic mice. Reaching a score of “5”, the animals will be euthanized for ethical reasons. Onset is defined as the earliest time when the mice show symptoms (score <4). Changes over time in the different groups were monitored weekly.
# (§5) • Data are presented as mean values f SD for the number of different experiments. • Statistical analyses were performed using Student's t-test. • P<0.05 and **P<0.01 comparing all SOD1 groups versus WT (wild type). • ^+P<0.05 and ^++P<0.01 comparing all SOD1 groups treated with EH301, DXM, IB or their combinations versus SOD1 untreated controls. • ^aP<0.05 and ^aaP<0.01 comparing SOD1+EH301+DXM or SOD1+EH301+IB groups versus SOD1+EH301. • ^bP<0.05 and ^bbP<0.01 comparing SOD1+EH301+DXM or SOD1+EH301+IB groups versus SOD1+DXM • ^cP<0.05 and ^ccP<0.01 comparing SOD1+EH301+DXM or SOD1+EH301+IB groups versus SOD1+IB
# [2] = system: SOD1-G93A mice; assay: Survival of SOD1 G93A mice (Kaplan-Meier); type: in vivo, mouse; conditions: for Survival time (surviving mice per group): SOD1 mice
# Excerpt: Mice hemizygous for SOD1-G93A (also called G93A-SOD1) transgene are viable and fertile, with transgenic expression of a G93A mutant form of human SOD1. This founder line (often referred to as G1H) is reported to have a high transgene copy number. […] Motor neuron degeneration has been associated with function and/or degeneration of astrocytes, the major glial cell type of the nervous system. Transgenic mice have an abbreviated life span: 50% survive at 157.1+/−9.3 days (in contrast to the mixed B6SJL background where 50% survival is observed at 128.9+/−9.1 days). Female hemizygotes are poor breeders, and rarely produce more than one litter before the onset of disease. […] The pattern of gene expression in SOD1G93A activated microglia represents a unique ALS-specific signature. These SOD1-G93A (also called G93A-SOD1) transgenic mice us thus useful in studying neuromuscular disorders, including Amyotrophic Lateral Sclerosis.
# The SOD1-G93A transgene was designed with a mutant human SOD1 gene (harboring a single amino acid substitution of glycine to alanine at codon 93) driven by its endogenous human SOD1 promoter. This transgene was injected into fertilized B6SJLF1 mouse eggs and founder animals were obtained. Transgenic mice on a mixed B6SJL genetic background were sent to The Jackson Laboratory (as Stock No. 002726). Upon arrival, some mice were backcrossed to C57BL/6J for at least 10 generations to generate this congenic strain (Stock No. 004435). The backcross was completed in July 2002.
# as §1, §2, §3, §4, §5
# [3] = system: SOD1-G93A mice; assay: Rotarod test in SOD1 mice; type: in vivo, mouse; conditions: for Rotarod test (maximum period on rotating axle): SOD1 mice, limit 1200 seconds, mean
# Experimental: as §1, §2, §3, §4
# Functions of the test include evaluating balance, grip strength and motor coordination of the subjects; especially in testing the effect of experimental drugs. For this test (Rota Rod, Harvard Apparatus, Holliston, MA) each animal was given three trials and the maximum period (seconds) that it could remain on a rotating axle (3.5 cm diameter; speed of rotation: 15 rpm) without falling was measured. Each mouse was given up to three attempts for an arbitrary limit of 1200 seconds and the longest period was recorded. Changes over time in the different groups were monitored weekly.
# as §5
# [4] = system: FUS-R521C mice; assay: Survival of FUS-R521C mice; type: in vivo, mouse
# Experimental: FUS-R521C mice (ALS model; transgene injected into B6SJL oocytes. Maintained on C57BL/6, therefore subsequent generations have a higher percentage of C57BL/6) were selected for methods examining the effects of the addition of acetylcysteine.
# Acetylcysteine (NAC) was administered intraperitoneally (IP): 100 mg/kg per day, beginning on week 30, in experiments examining the effect of the addition of NAC.
# [5] = after oral administration; cited from earlier work
# [6] = SOD1-G93A mice, versus control untreated
smiles,measurement,setting,value
"C[C@@H]1C[C@H]2[C@@H]3CCC4=CC(=O)C=C[C@]4(C)[C@@]3(F)[C@@H](O)C[C@]2(C)[C@@]1(O)C(=O)CO [DXM, Dexamethasone]",Neurological score,"[1]; week 10, mean",0
same,Neurological score,"[1]; week 11, mean",0
same,Neurological score,"[1]; week 12, mean",0
same,Neurological score,"[1]; week 13, mean",0
same,Neurological score,"[1]; week 14, mean",0.50
same,Neurological score,"[1]; week 15, mean",0.70
same,Neurological score,"[1]; week 16, mean",1
same,Neurological score,"[1]; week 17, mean",1
same,Neurological score,"[1]; week 18, mean",1.60
same,Neurological score,"[1]; week 19, mean",2.50
same,Neurological score,"[1]; week 20, mean",3
same,Neurological score,"[1]; week 21, mean",3.40
same,Neurological score,"[1]; week 22, mean",4
same,Survival time (surviving mice per group),[2]; week 10,10
same,Survival time (surviving mice per group),[2]; week 11,10
same,Survival time (surviving mice per group),[2]; week 12,9
same,Survival time (surviving mice per group),[2]; week 13,9
same,Survival time (surviving mice per group),[2]; week 14,9
same,Survival time (surviving mice per group),[2]; week 15,9
same,Survival time (surviving mice per group),[2]; week 16,9
same,Survival time (surviving mice per group),[2]; week 17,9
same,Survival time (surviving mice per group),[2]; week 18,9
same,Survival time (surviving mice per group),[2]; week 19,9
same,Survival time (surviving mice per group),[2]; week 20,7
same,Survival time (surviving mice per group),[2]; week 21,4
same,Survival time (surviving mice per group),[2]; week 22,1
same,Survival time (surviving mice per group),[2]; week 23,0
same,Rotarod test (maximum period on rotating axle),"[3]; week 10, 15 rpm",1200 s
same,Rotarod test (maximum period on rotating axle),"[3]; week 11, 15 rpm",1200 s
same,Rotarod test (maximum period on rotating axle),"[3]; week 12, 15 rpm",1200 s
same,Rotarod test (maximum period on rotating axle),"[3]; week 13, 15 rpm",1200 s
same,Rotarod test (maximum period on rotating axle),"[3]; week 14, 15 rpm",1200 s
same,Rotarod test (maximum period on rotating axle),"[3]; week 15, 15 rpm",1130 s
same,Rotarod test (maximum period on rotating axle),"[3]; week 16, 15 rpm",1045 s
same,Rotarod test (maximum period on rotating axle),"[3]; week 17, 15 rpm",820 s
same,Rotarod test (maximum period on rotating axle),"[3]; week 18, 15 rpm",336 s
same,Rotarod test (maximum period on rotating axle),"[3]; week 19, 15 rpm",225 s
same,Rotarod test (maximum period on rotating axle),"[3]; week 20, 15 rpm",161 s
same,Rotarod test (maximum period on rotating axle),"[3]; week 21, 15 rpm",52 s
same,Rotarod test (maximum period on rotating axle),"[3]; week 22, 15 rpm",0 s
"CC(C)C(=O)c1c(C(C)C)nn2ccccc12 [IBU, 2-methyl-1-(2-(1-methylethyl)pyrazolo(1,5-a)pyridin-3-yl)1-propanone]",survival,"[4]; FIGS. 3A-3C, end of study 45 weeks",about 30 weeks
same,Neurological score,"[1]; week 10, mean",0
same,Neurological score,"[1]; week 11, mean",0
same,Neurological score,"[1]; week 12, mean",0
same,Neurological score,"[1]; week 13, mean",0
same,Neurological score,"[1]; week 14, mean",0
same,Neurological score,"[1]; week 15, mean",0.30
same,Neurological score,"[1]; week 16, mean",0.75
same,Neurological score,"[1]; week 17, mean",1
same,Neurological score,"[1]; week 18, mean",1.50
same,Neurological score,"[1]; week 19, mean",2.20
same,Neurological score,"[1]; week 20, mean",3
same,Neurological score,"[1]; week 21, mean",3.70
same,Neurological score,"[1]; week 22, mean",4
same,mean survival,[2]; SOD1-G93A mice treated from day 50,137 days
same,survival (in words),[2]; [6],some improvement
same,Survival time (surviving mice per group),[2]; week 10,10
same,Survival time (surviving mice per group),[2]; week 11,10
same,Survival time (surviving mice per group),[2]; week 12,10
same,Survival time (surviving mice per group),[2]; week 13,10
same,Survival time (surviving mice per group),[2]; week 14,10
same,Survival time (surviving mice per group),[2]; week 15,10
same,Survival time (surviving mice per group),[2]; week 16,10
same,Survival time (surviving mice per group),[2]; week 17,10
same,Survival time (surviving mice per group),[2]; week 18,10
same,Survival time (surviving mice per group),[2]; week 19,8
same,Survival time (surviving mice per group),[2]; week 20,4
same,Survival time (surviving mice per group),[2]; week 21,3
same,Survival time (surviving mice per group),[2]; week 22,1
same,Survival time (surviving mice per group),[2]; week 23,0
same,motor coordination / motor-neuron dependent functions (in words),[3]; [6],some improvement
same,Rotarod test (maximum period on rotating axle),"[3]; week 10, 15 rpm",1200 s
same,Rotarod test (maximum period on rotating axle),"[3]; week 11, 15 rpm",1200 s
same,Rotarod test (maximum period on rotating axle),"[3]; week 12, 15 rpm",1200 s
same,Rotarod test (maximum period on rotating axle),"[3]; week 13, 15 rpm",1200 s
same,Rotarod test (maximum period on rotating axle),"[3]; week 14, 15 rpm",1200 s
same,Rotarod test (maximum period on rotating axle),"[3]; week 15, 15 rpm",1200 s
same,Rotarod test (maximum period on rotating axle),"[3]; week 16, 15 rpm",1200 s
same,Rotarod test (maximum period on rotating axle),"[3]; week 17, 15 rpm",926 s
same,Rotarod test (maximum period on rotating axle),"[3]; week 18, 15 rpm",544 s
same,Rotarod test (maximum period on rotating axle),"[3]; week 19, 15 rpm",197 s
same,Rotarod test (maximum period on rotating axle),"[3]; week 20, 15 rpm",102 s
same,Rotarod test (maximum period on rotating axle),"[3]; week 21, 15 rpm",30 s
same,Rotarod test (maximum period on rotating axle),"[3]; week 22, 15 rpm",0 s
"CC(=O)N[C@@H](CS)C(=O)O [NAC, N-acetylcysteine]",survival,[4]; FIG. 3C,about 32 days
same,half-life,[5],about 6 hours
same,time to max. plasma level,[5],2 to 3 h
